In US20260125375A1 (Pfizer Inc., priority 2022, published 2026):
Where two headings read alike, the source gives them in different places.

Tests used:
[1] = molecular target: T1, C-CBL (residues 46-435) (Homo sapiens, UniProt P22681); assay: Ligand Displacement Assay (LDA), HTRF competitive binding against BODIPY-labeled fluorescent tracer, C-CBL; settings: geometric mean of the number of tests, read-out: C-CBL Ki (nM) GMean
T1 construct: Purified CBL-B (residues 36-427) and C-CBL (residues 46-435) proteins from baculovirus-infected insect cells; made in house; host or cells: baculovirus-infected insect cells
T1 sequence (P22681 46-435): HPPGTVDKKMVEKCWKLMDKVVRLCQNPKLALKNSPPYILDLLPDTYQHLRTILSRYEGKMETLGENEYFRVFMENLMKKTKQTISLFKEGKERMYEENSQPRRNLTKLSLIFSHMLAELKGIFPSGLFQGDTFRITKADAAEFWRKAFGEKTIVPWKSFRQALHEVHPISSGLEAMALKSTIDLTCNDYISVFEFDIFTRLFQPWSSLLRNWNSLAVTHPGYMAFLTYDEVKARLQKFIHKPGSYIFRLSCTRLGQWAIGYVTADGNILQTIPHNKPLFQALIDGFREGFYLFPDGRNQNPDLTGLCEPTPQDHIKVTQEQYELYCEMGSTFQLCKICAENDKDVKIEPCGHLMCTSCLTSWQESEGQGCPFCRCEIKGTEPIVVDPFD
In short: (§1)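 Terbium-streptavidin donor on BirA-biotinylated, AviTagged protein from baculovirus-infected insect cells; BODIPY tracer as acceptor. Compound titrations were three-fold and duplicated, […] with 2% DMSO final.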

[2] = molecular target: T2, CBL-B (Homo sapiens, UniProt Q13191); assay: Jurkat HiBit-IL2 assay (c-CBL KO), reporter cell line expressing CBL-B only; type: cell-based; settings: geometric mean, read-out: C-CBL KO EC50 (nM) GMean
T2 construct: endogenous in cells; host or cells: Jurkat HiBit-IL2 reporter cells, C-CBL knocked out by CRISPR
Text: (§2) Jurkat HiBit-IL2 Assay (WT, c-CBL KO, CBL-B KO)
(§3) The purpose of the Jurkat HiBit-IL2 assay is to evaluate the effect of the inhibition of CBL-B and/or C-CBL on TCR/CD28 stimulated interleukin-2 (IL-2) secretion.
(§4) The expression of IL-2 can then be accurately measured by HiBit luciferase assay. Further, C-CBL or CBL-B was knocked out by CRISPR respectively in this Jurkat HiBit-IL2 reporter cell line to create reporter cell line expressing CBL-B only (c-CBL knockout (KO)) or C-CBL only (CBL-B KO).
(§5) All three reporter cell lines were maintained in RPMI-1640 media with GlutaMax, 10% fetal bovine serum, 100 units/ml of penicillin, and 100 μg/ml of streptomycin at 37° C., 5% CO2, at a cell density 1×10e5-2×10e6 viable cells/ml. Serial diluted compounds in DMSO (40 nl/well, final 0.1% DMSO in assay cell culture) were plated into 384-well white-wall clear-bottom cell culture plates. Reporter cells were pelleted and resuspended in fresh cell culture medium to 0.66×10e6 cells/ml and added to the assay plate at 30 μl/well (20,000 cells/well). The cells were incubated with compounds for 1 hour at 37° C., 5% CO2. 10 μl/well of anti-CD3 antibody (OKT3) and anti-CD28 antibody (CD28.2) prediluted in fresh cell culture medium at 4× final concentration (anti-CD3 mAb: 4 μg/ml; anti-CD28 mAb: 8 μg/ml) was added into the cells (final concentration of anti-CD3 mAb: 1 μg/ml; anti-CD28 mAb: 2 μg/ml). The cells were cultured for another 4 hours at 37° C., 5% CO2. The Nano-Glo HiBiT Lytic Reagent was prepared following the manufacturer's protocol. 20 ul/well of the Nano-Glo HiBiT Lytic Reagent was added into the reporter cell culture assay plate and incubated at room temperature (20-25° C.) for 15 minutes. The plates were read on a Perkin-Elmer EnVision plate reader with 0.1 second integration time. Data were normalized to “Fold of Effect” with the anti-CD3 and anti-CD28 antibodies only samples as the baseline activation level and EC50 was calculated. The EC50 (nM) values reported are the geometric means (GMean) of the number of tests conducted.

[3] = molecular target: T3, C-CBL (Homo sapiens, UniProt P22681); assay: Jurkat HiBit-IL2 assay (CBL-B KO), reporter cell line expressing C-CBL only; type: cell-based; settings: geometric mean, read-out: CBL-B KO EC50 (nM) GMean
T3 construct: endogenous in cells; host or cells: Jurkat HiBit-IL2 reporter cells, CBL-B knocked out by CRISPR
Text: as §2, §3, §4, §5

[4] = molecular target: T4, CBL-B (residues 36-427) (Homo sapiens, UniProt Q13191); assay: Ligand Displacement Assay (LDA), HTRF competitive binding against BODIPY-labeled fluorescent tracer, CBL-B; settings: geometric mean of the number of tests, read-out: CBL-B Ki (nM) GMean
T4 construct: Purified CBL-B (residues 36-427) and C-CBL (residues 46-435) proteins from baculovirus-infected insect cells; made in house; host or cells: baculovirus-infected insect cells
In short: as §1

[5] = C-CBL KO (expressing CBL-B only), Table 16b (further repetition)
[6] = CBL-B KO (expressing C-CBL only), Table 16b (further repetition)
[7] = c-CBL KO (CBL-B only), anti-CD3/anti-CD28 stimulation 4 hours, Table 16a
[8] = CBL-B KO (C-CBL only), anti-CD3/anti-CD28 stimulation 4 hours, Table 16a

| Compound | Ki [1] | EC50 [2, 5] | EC50 [3, 6] | Ki [4] | EC50 [2, 7] | EC50 [3, 8] |
| --- | --- | --- | --- | --- | --- | --- |
| C[C@@H](NC1(CO)CCC1)c1nc(C(F)(F)F)cc2c(-c3cccc([C@H](c4nncn4C)C4CCC4)c3)n[nH]c12 (single isomer, unassigned) [Example D73] | 157 nM | 118 nM | 639 nM | 12.1 nM | – | – |
| CCC(CC)(CO)N[C@@H](C)c1nc(C(F)(F)F)cc2c(-c3cccc([C@H](c4nncn4C)C4CCC4)c3)n[nH]c12 (single isomer, unassigned) [Example D74] | 366 nM | 639 nM | 3400 nM | 31.5 nM | – | – |
| CCC(CC)(CO)N[C@H](C)c1nc(C(F)(F)F)cc2c(-c3cccc([C@H](c4nncn4C)C4CCC4)c3)n[nH]c12 (single isomer, unassigned) [Example D75] | 128 nM | 195 nM | 1030 nM | 11 nM | – | – |
| CC[C@H](c1cccc(-c2n[nH]c3c([C@H](C)NC[C@H](C)O)nc(C(F)(F)F)cc23)c1)c1nncn1C (single isomer, unassigned) [Example D76] | 2.9 nM | 20 nM | 39 nM | 0.7 nM | – | – |
| CC[C@H](c1cccc(-c2n[nH]c3c([C@@H](C)NC[C@H](C)O)nc(C(F)(F)F)cc23)c1)c1nncn1C (single isomer, unassigned) [Example D77] | 4.5 nM | 33 nM | 93 nM | 0.8 nM | – | – |
| CC(O)CNC(C)c1nc(C2CC2)cc2c(-c3cccc(C(c4nncn4C)C4CCC4)c3)n[nH]c12 (single isomer, unassigned) [Example H1] | 48.4 nM | 103 nM | 485 nM | 4.3 nM | 44 nM | 559 nM |
| CC(O)CNC(C)c1nc(C2CC2)cc2c(-c3cccc(C(c4nncn4C)C4CCC4)c3)n[nH]c12 (single isomer, unassigned) [Example H2] | 18.3 nM | 41 nM | 165 nM | 1.4 nM | 17 nM | 232 nM |
| CC(NC1CCC1)c1nc(C2CC2)cc2c(-c3cccc(C4(Cc5nncn5C)COC4)c3)n[nH]c12 (single isomer, unassigned) [Example H3, N-{(1ξ)-1-[5-cyclopropyl-3-(3-{3-[(4-methyl-4H-1,2,4-triazol-3-yl)methyl]oxetan-3-yl}phenyl)-1H-pyrazolo[3,4-c]pyridin-7-yl]ethyl}cyclobutanamine] | 28.8 nM | 231 nM | 415 nM | 8.1 nM | 49 nM | 392 nM |
| CC(NC1CCC1)c1nc(C2CC2)cc2c(-c3cccc(C4(Cc5nncn5C)COC4)c3)n[nH]c12 (single isomer, unassigned) [Example H4, N-{(1ξ)-1-[5-cyclopropyl-3-(3-{3-[(4-methyl-4H-1,2,4-triazol-3-yl)methyl]oxetan-3-yl}phenyl)-1H-pyrazolo[3,4-c]pyridin-7-yl]ethyl}cyclobutanamine] | 4.5 nM | 11 nM | 28 nM | 1 nM | 5 nM | 43 nM |
| CC(NC(=O)CO)c1nc(C(F)(F)F)cc2c(-c3cccc([C@H](c4nncn4C)C4CCC4)c3)n[nH]c12 (single isomer, unassigned) [Example I1] | 1.9 nM | 29 nM | 163 nM | 0.8 nM | 16 nM | 182 nM |
| CC(NC(=O)CO)c1nc(C(F)(F)F)cc2c(-c3cccc([C@H](c4nncn4C)C4CCC4)c3)n[nH]c12 (single isomer, unassigned) [Example I2] | 64.5 nM | – | – | 7.8 nM | 313 nM | 2420 nM |
| C[C@H](O)C(=O)N[C@@H](C)c1nc(C(F)(F)F)cc2c(-c3cccc([C@H](c4nncn4C)C4CCC4)c3)n[nH]c12 (single isomer, unassigned) [Example I3] | 0.7 nM | 6 nM | 15 nM | 0.8 nM | 3 nM | 17 nM |
| CC(NC(=O)[C@H](C)O)c1nc(C(F)(F)F)cc2c(-c3cccc([C@H](c4nncn4C)C4CCC4)c3)n[nH]c12 (single isomer, unassigned) [Example I4] | 24.3 nM | 108 nM | 491 nM | 3.4 nM | 48 nM | 852 nM |
| CC(NC(=O)[C@@H](C)O)c1nc(C(F)(F)F)cc2c(-c3cccc([C@H](c4nncn4C)C4CCC4)c3)n[nH]c12 (single isomer, unassigned) [Example I5] | 22.9 nM | 62 nM | 299 nM | 2.7 nM | – | – |
| C[C@H](N[C@@H]1CC[C@H](O)C1)c1nc(C(F)(F)F)cc2c(-c3cccc([C@H](c4nncn4C)C4CCC4)c3)n[nH]c12 [Example C49, (1S,3R)-3-({(1S)-1-[3-{3-[(R)-cyclobutyl(4-methyl-4H-1,2,4-triazol-3-yl)methyl]phenyl}-5-(trifluoromethyl)-1H-pyrazolo[3,4-c]pyridin-7-yl]ethyl}amino)cyclopentanol] | 20.9 nM | – | – | 2.1 nM | 8 nM | 135 nM |
| C[C@@H](N[C@@H]1CC[C@H](O)C1)c1nc(C(F)(F)F)cc2c(-c3cccc([C@H](c4nncn4C)C4CCC4)c3)n[nH]c12 [Example C118, (1S,3R)-3-({(1R)-1-[3-{3-[(R)-cyclobutyl(4-methyl-4H-1,2,4-triazol-3-yl)methyl]phenyl}-5-(trifluoromethyl)-1H-pyrazolo[3,4-c]pyridin-7-yl]ethyl}amino)cyclopentanol] | 25.5 nM | 46 nM | 338 nM | 2.1 nM | – | – |
| CC(C)[C@H]1CN(C)CCN1Cc1nc(C(F)(F)F)cc2c(-c3cccc([C@H](c4nncn4C)C4CCC4)c3)n[nH]c12 [Example D32, 3-{3-[(R)-cyclobutyl(4-methyl-4H-1,2,4-triazol-3-yl)methyl]phenyl}-7-{[(2S)-4-methyl-2-(propan-2-yl)piperazin-1-yl]methyl}-5-(trifluoromethyl)-1H-pyrazolo[3,4-c]pyridine] | 10.2 nM | 12 nM | 134 nM | 1.3 nM | 8 nM | 175 nM |
| CC(C)[C@H]1CNCCN1Cc1nc(C(F)(F)F)cc2c(-c3cccc([C@H](c4nncn4C)C4CCC4)c3)n[nH]c12 [Example D36] | 16.4 nM | 52 nM | 454 nM | 1.4 nM | – | – |
